According to PubChem BioAssay AID1259411 (Chemical Carcinogenesis Research Information System (CCRIS), 2018):
Active and inactive are the calls of the source. How the calls were made is not given here.

Test system: rodent carcinogenicity bioassays, tumor incidence
Test: CCRIS carcinogenicity studies
Outline: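 NCI-built, expert-reviewed records of carcinogenicity and related test outcomes (mutagenicity, tumor promotion/inhibition) compiled from published and report sources, historical span 1985-2011, not updated.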

O=c1c(O[C@@H]2O[C@H]([C@H](O)CO)[C@H](O)[C@H]2O)c(-c2ccc(O)c(O)c2)oc2cc(O)cc(O)c12
carcinogen call (Species: RAT, Strain/Sex: F344 DUCRJ/FEMALE (50/GROUP), Route: ORAL, DIET, Dose: 119.2, 352.8 MG/KG DAILY FOR 104 WK (STUDY DURATION: 104 WK), TEST MATERIAL WAS ENZYMATICALLY MODIFIED, Dose: 119.2, 352.8 MG/KG DAILY FOR 104 WK (STUDY DURATION: 104 WK), TEST MATERIAL WAS ENZYMATICALLY MODIFIED, Tumor Site: Type of Lesion: NONE): inactive; negative
carcinogen call (Species: RAT, Strain/Sex: F344 DUCRJ/MALE (50/GROUP), Route: ORAL, DIET, Dose: 142.5, 431.1 MG/KG DAILY FOR 104 WK (STUDY DURATION: 104 WK), TEST MATERIAL WAS ENZYMATICALLY MODIFIED, Dose: 142.5, 431.1 MG/KG DAILY FOR 104 WK (STUDY DURATION: 104 WK), TEST MATERIAL WAS ENZYMATICALLY MODIFIED, Tumor Site: Type of Lesion: NONE): inactive; negative

CCCC[C@@H](C)[C@@H](OC(=O)C[C@@H](CC(=O)O)C(=O)O)[C@H](C[C@@H](C)C[C@H](O)CCCC[C@@H](O)C[C@H](O)[C@H](C)N)OC(=O)C[C@@H](CC(=O)O)C(=O)O
carcinogen call (Species: FISH, Strain/Sex: SHASTA RAINBOW TROUT/MALE,FEMALE, Route: ORAL, Dose: 0, 3.2, 23, 104 PPM IN DIET FOR 4 WK, RESUMED AFTER 2 WK FOR 30 WK (STUDY DURATION: 60 WK), Dose: 0, 3.2, 23, 104 PPM IN DIET FOR 4 WK, RESUMED AFTER 2 WK FOR 30 WK (STUDY DURATION: 60 WK)): inactive; negative
carcinogen call (Species: MOUSE, Strain/Sex: B6C3F1/FEMALE, Route: ORAL, Dose: 0, 5, 15, 50, 80 PPM IN DIET FOR 104 WK (STUDY DURATION: 104 WK), Dose: 0, 5, 15, 50, 80 PPM IN DIET FOR 104 WK (STUDY DURATION: 104 WK), Tumor Site: Type of Lesion: LIVER: HEPATOCELLULAR ADENOMA, HEPATOCELLULAR CARCINOMA): active; positive
carcinogen call (Species: MOUSE, Strain/Sex: B6C3F1/MALE, Route: ORAL, Dose: 0, 5, 15, 80, 150 PPM IN DIET FOR 104 WK (STUDY DURATION: 104 WK), Dose: 0, 5, 15, 80, 150 PPM IN DIET FOR 104 WK (STUDY DURATION: 104 WK)): inactive; negative
carcinogen call (Species: RAT, Strain/Sex: BDIX/MALE,FEMALE, Route: ORAL, Dose: 0, 1, 10, 25 MG/KG DIET FOR 2 YR (STUDY DURATION: 2 YR), Dose: 0, 1, 10, 25 MG/KG DIET FOR 2 YR (STUDY DURATION: 2 YR)): inactive; negative
carcinogen call (Species: RAT, Strain/Sex: BDIX/MALE, Route: ORAL, Dose: 0, 50 MG/KG DIET FOR 26 MO (STUDY DURATION: 26 MO), Tumor Site: Type of Lesion: LIVER: HEPATOCELLULAR CARCINOMA): active; positive
carcinogen call (Species: RAT, Strain/Sex: F344/FEMALE, Route: ORAL, Dose: 0, 5, 15, 50, 100 PPM IN DIET FOR 104 WK (STUDY DURATION: 104 WK), Dose: 0, 5, 15, 50, 100 PPM IN DIET FOR 104 WK (STUDY DURATION: 104 WK)): inactive; negative
carcinogen call (Species: RAT, Strain/Sex: F344/MALE, Route: ORAL, Dose: 0, 5, 15, 50, 150 PPM IN DIET FOR 104 WK (STUDY DURATION: 104 WK), Dose: 0, 5, 15, 50, 150 PPM IN DIET FOR 104 WK (STUDY DURATION: 104 WK), Tumor Site: Type of Lesion: KIDNEY: RENAL TUBULE ADENOMA, RENAL TUBULE CARCINOMA): active; positive

CNc1ccc(N)cc1
carcinogen call (Species: MOUSE, Strain/Sex: B6C3F1/MALE, Route: INTRAPERITONEAL, Dose: 0, 0.15 UMOL/G ONCE IN SODIUM ACETATE BUFFER (STUDY DURATION: 10 MO)): inactive; negative

CC(=O)Nc1ccc2ccc3cccc4ccc1c2c34
carcinogen call (Species: RAT, Strain/Sex: STRAIN-CD/FEMALE, Route: INTRAPERITONEAL, Dose: 0, 67 UMOL/KG BW IN DMSO 3/WK FOR 4 WK (STUDY DURATION: 61 WK)): inactive; negative
carcinogen call (Species: RAT, Strain/Sex: STRAIN-CD/FEMALE, Route: INTRAPERITONEAL, Dose: 0, 67 UMOL/KG/BW IN 25 UMOL/ML DMSO 3/WK FOR 4 WK (TOTAL DOSE: 0; 119 UMOL) ADMINISTERED TO WEANLING RATS (STUDY DURATIO, Dose: 0, 67 UMOL/KG/BW IN 25 UMOL/ML DMSO 3/WK FOR 4 WK (TOTAL DOSE: 0; 119 UMOL) ADMINISTERED TO WEANLING RATS (STUDY DURATIO): inactive; negative

Cc1cc(Cl)ccc1OC(C)C(=O)O (centres undefined)
carcinogen call (Species: Mouse, Strain/Sex: B6C3F1/CrlBR/Female (50/Group), Route: Oral, Dose: 0, 25, 250 ppm of 92.7% mecoprop in diet for 18 mo, study duration 18 mo, Dose: 0, 25, 250 ppm of 92.7% mecoprop in diet for 18 mo, study duration 18 mo): inactive; negative
carcinogen call (Species: Mouse, Strain/Sex: B6C3F1/CrlBR/Male (50/Group), Route: Oral, Dose: 0, 25, 250 ppm of 92.7% mecoprop in diet for 18 mo, study duration 18 mo, Dose: 0, 25, 250 ppm of 92.7% mecoprop in diet for 18 mo, study duration 18 mo, Tumor Site: Type of Lesion: Lung: carcinoma): active; positive
carcinogen call (Species: Rat, Strain/Sex: Wistar/Female (65/Group), Route: Oral, Dose: 0, 20, 100, 400 ppm of 92.7% mecoprop in diet for 24 mo, study duration 24 mo, Dose: 0, 20, 100, 400 ppm of 92.7% mecoprop in diet for 24 mo, study duration 24 mo): inactive; negative
carcinogen call (Species: Rat, Strain/Sex: Wistar/Male (65/Group), Route: Oral, Dose: 0, 20, 100, 400 ppm of 92.7% mecoprop in diet for 24 mo, study duration 24 mo, Dose: 0, 20, 100, 400 ppm of 92.7% mecoprop in diet for 24 mo, study duration 24 mo): inactive; negative

O=[N+]([O-])c1ccc(-c2ccccc2)cc1
carcinogen call (Species: DOG, Strain/Sex: MONGREL/FEMALE, Route: ORAL, Dose: 300 MG 3/WK FOR LIFE, Tumor Site: Type of Lesion: URINARY BLADDER: EPITHELIAL CARCINOMA): active; positive
carcinogen call (Species: RAT, Strain/Sex: SPRAGUE-DAWLEY/FEMALE, Route: SUBCUTANEOUS, Dose: 0, 50, 100 UMOL/KG IN DMSO 1/WK FOR 8 WK (STUDY DURATION: 62 WK), Dose: 0, 50, 100 UMOL/KG IN DMSO 1/WK FOR 8 WK (STUDY DURATION: 62 WK)): inactive; negative
carcinogen call (Species: RAT, Strain/Sex: SPRAGUE-DAWLEY/MALE, Route: SUBCUTANEOUS, Dose: 0, 50, 100 UMOL/KG IN DMSO 1/WK FOR 8 WK (STUDY DURATION: 62 WK), Dose: 0, 50, 100 UMOL/KG IN DMSO 1/WK FOR 8 WK (STUDY DURATION: 62 WK)): inactive; negative

Cc1cccc2c1cc(C)c1c3c(ccc12)C(O)C(O)C1OC31 (centres undefined)
carcinogen call (Species: MOUSE, Strain/Sex: ICR/FEMALE, Route: INTRAPERITONEAL, Dose: 0, 8 NMOL IN 5 µL DMSO TO PUPS ON D 1/OF LIFE THEN 16 NMOL IN 10 µL ON D 8 AND 3 NMOL IN 20 µL ON D 15 (STUDY DURATION:, Tumor Site: Type of Lesion: LUNG: TUMOR): active; positive
carcinogen call (Species: MOUSE, Strain/Sex: ICR/MALE, Route: INTRAPERITONEAL, Dose: 0, 8 NMOL IN 5 µL DMSO TO PUPS ON D 1/OF LIFE THEN 16 NMOL IN 10 µL ON D 8 AND 3 NMOL IN 20 µL ON D 15 (STUDY DURATION:, Tumor Site: Type of Lesion: LUNG: TUMOR, LIVER: TUMOR): active; positive

O=C1C2(Cl)C3(Cl)C4(Cl)C(Cl)(Cl)C5(Cl)C3(Cl)C1(Cl)C5(Cl)C24Cl (centres undefined)
carcinogen call (Species: MOUSE, Strain/Sex: B6C3F1/FEMALE, Route: ORAL, Dose: 20, 40 MG/KG IN DIET, TWA, Tumor Site: Type of Lesion: LIVER: HEPATOCELLULAR CARCINOMA): active; positive
carcinogen call (Species: MOUSE, Strain/Sex: B6C3F1/MALE, Route: ORAL, Dose: 20, 23 MG/KG IN DIET, TWA, Tumor Site: Type of Lesion: LIVER: HEPATOCELLULAR CARCINOMA): active; positive
carcinogen call (Species: RAT, Strain/Sex: OSBORNE-MENDEL/FEMALE, Route: ORAL, Dose: 18, 26 MG/KG IN DIET, TWA, Tumor Site: Type of Lesion: LIVER: HEPATOCELLULAR CARCINOMA): active; positive
carcinogen call (Species: RAT, Strain/Sex: OSBORNE-MENDEL/MALE, Route: ORAL, Dose: 8, 24 MG/KG IN DIET, TWA, Tumor Site: Type of Lesion: LIVER: HEPATOCELLULAR CARCINOMA): active; positive

C[C@H](CCC(=O)O)[C@H]1CC[C@H]2[C@@H]3CC[C@@H]4C[C@H](O)CC[C@]4(C)[C@H]3CC[C@]12C
carcinogen call (Species: MOUSE, Strain/Sex: B6C3F1/FEMALE, Route: GAVAGE, Dose: 0, 125, 250 MG/KG IN CORN OIL, Dose: 0, 125, 250 MG/KG IN CORN OIL): inactive; negative
carcinogen call (Species: MOUSE, Strain/Sex: B6C3F1/MALE, Route: GAVAGE, Dose: 0, 125, 250 MG/KG IN CORN OIL, Dose: 0, 125, 250 MG/KG IN CORN OIL): inactive; negative
carcinogen call (Species: RAT, Strain/Sex: F344/FEMALE, Route: GAVAGE, Dose: 0, 250, 500 MG/KG IN CORN OIL, Dose: 0, 250, 500 MG/KG IN CORN OIL): inactive; negative
carcinogen call (Species: RAT, Strain/Sex: F344/MALE, Route: GAVAGE, Dose: 0, 250, 500 MG/KG IN CORN OIL, Dose: 0, 250, 500 MG/KG IN CORN OIL): inactive; negative
